{
  "source": "paper PMC5559328",
  "about": "(Clinical cancer research : an official journal of the …, 2017)",
  "key": {"[1]": {"test_system": "patients with advanced solid tumors", "design": "species or system human", "details": "in vivo"}, "[2]": {"assay": "Plasma drug exposure of ABC294640", "format": "in vivo, human", "details": "for Trough drug level: Day 28 prior to drug administration; for AUC(0-inf) / AUC(0-t): oral"}, "[3]": {"test_system": "plasma S1P and dihydroC16-ceramide", "assay": "Plasma sphingolipid pharmacodynamics", "format": "in vivo, human"}, "SK2": {"molecular_target": "SK2", "details": "ref [17], [21], cited from earlier work"}, "tumors": {"test_system": "tumors", "details": "mouse models; ref [21]; cited from earlier work"}, "plasma S1P": {"test_system": "plasma S1P", "details": "at therapeutically efficacious drug doses; ref [34]; cited from earlier work"}, "[4]": {"details": "cited from earlier work"}, "[5]": {"details": "250 and 500 mg treatment groups"}},
  "note": "Structures can show the parent of a compound that is named as a salt. Where two headings read alike, the source gives them in different places.",
  "data": [
    {"smiles": "O=C(NCc1ccncc1)C12CC3CC(C1)CC(c1ccc(Cl)cc1)(C3)C2", "note": "[ABC294640, 4-pyridinylmethyl-3-(4-chlorophenyl)adamantinecarboxamide, hydrochloride salt]", "values": [
      {"measurement": "Patients with psychiatric disorders", "setting": "[1]; human", "result": 2, "unit": "patients"},
      {"measurement": "Patients with treatment-related nervous system disorders", "setting": "[1]; human", "result": 6, "unit": "patients"},
      {"measurement": "Fatigue (treatment-related adverse event)", "setting": "[1]; human, 28 day", "result": "0 n (%)"},
      {"measurement": "Creatinine Increase (treatment-related adverse event)", "setting": "[1]; human, 28 days", "result": "0 n (%)"},
      {"measurement": "Fatigue (treatment-related adverse event)", "setting": "[1]; human, 28 days", "result": "5 (24) n (%)"},
      {"measurement": "Hyperbilirubinemia (treatment-related adverse event)", "setting": "[1]; human, 28 days", "result": "0 n (%)"},
      {"measurement": "Vision Change (treatment-related adverse event)", "setting": "[1]; human, 28 days", "result": "0 n (%)"},
      {"measurement": "Recommended Phase II Dose", "setting": "[1]; human, po, 28 day cycles, continuous", "result": 500, "unit": "mg bid"},
      {"measurement": "Tolerability of dose level", "setting": "[1]", "result": "not to be tolerable"},
      {"measurement": "Trough drug level", "setting": "[2]; 250 mg bid, n=3", "result": "0.29 ± 0.15", "unit": "µg/mL"},
      {"measurement": "Trough drug level", "setting": "[2]; 250 mg qd, n=5", "result": "0.20 ± 0.34", "unit": "µg/mL"},
      {"measurement": "Ratio AUC0-T at Day 28 to AUCINF at Day 1", "setting": "[2]; 500 mg bid", "result": 1.25},
      {"measurement": "Trough drug level", "setting": "[2]; 500 mg bid, n=5", "result": "1.82 ± 0.85", "unit": "µg/mL"},
      {"measurement": "Ratio AUC0-T at Day 28 to AUCINF at Day 1", "setting": "[2]; 750 mg bid", "result": 1.85},
      {"measurement": "Trough drug level", "setting": "[2]; 750 mg bid, n=1", "result": 4.48, "unit": "µg/mL"},
      {"measurement": "AUC(0-inf)", "setting": "[2]; human, plasma, 250 mg", "result": "15200 ± 8230", "unit": "ng·h/mL"},
      {"measurement": "AUC(0-t)", "setting": "[2]; human, plasma, 250 mg", "result": "17800 ± 15200", "unit": "ng·h/mL"},
      {"measurement": "AUC(0-inf)", "setting": "[2]; human, plasma, 500 mg", "result": "40700 ± 28000", "unit": "ng·h/mL"},
      {"measurement": "AUC(0-t)", "setting": "[2]; human, plasma, 500 mg", "result": "50800 ± 11300", "unit": "ng·h/mL"},
      {"measurement": "Tmax", "setting": "[2]; human, plasma, po", "result": "1 to 2", "unit": "h"},
      {"measurement": "half-life", "setting": "[2]; human, plasma, po", "result": "300 to 900", "unit": "min"},
      {"measurement": "Maximum plasma S1P decrease", "setting": "[3]; 250 mg (Days 1 and 28, 250 mg qd with 250 mg bid combined), n=10", "result": "51±6", "unit": "%"},
      {"measurement": "Maximum plasma S1P decrease", "setting": "[3]; 500 mg (Days 1 and 28 combined), n=5", "result": "46±9", "unit": "%"},
      {"measurement": "Maximum plasma S1P decrease", "setting": "[3]; 750 mg (Days 1 and 28 combined), n=2", "result": "54±14", "unit": "%"},
      {"measurement": "Time of maximum elevation of plasma dihydroC16-ceramide", "setting": "[3]; [5]", "result": "8 to 12", "unit": "h"},
      {"measurement": "Time of return of plasma dihydroC16-ceramide to baseline", "setting": "[3]; [5]", "result": 24, "unit": "h"},
      {"measurement": "Time of minimum plasma S1P level after treatment", "setting": "[3]; patients, all doses", "result": 12, "unit": "h"},
      {"measurement": "Time of recovery of plasma S1P to baseline", "setting": "[3]; patients, all doses", "result": "≤ 24", "unit": "h"},
      {"measurement": "Ki", "setting": "SK2; read-out: Ki, SK2", "result": 9, "unit": "µM"},
      {"measurement": "Ki, SK2", "setting": "SK2", "result": 3.4, "unit": "µg/mL"},
      {"measurement": "Mode of SK2 inhibition", "setting": "SK2", "result": "competitive with respect to sphingosine"},
      {"measurement": "Dose at which single-agent antitumor activity is typically apparent", "setting": "tumors", "result": "≥ 25", "unit": "mg/kg/day"},
      {"measurement": "Reduction of plasma S1P levels", "setting": "plasma S1P", "result": "up to 50%"},
      {"measurement": "half-life", "setting": "[4]; across several species, extensive preclinical work", "result": "approximately 4 hours"},
      {"measurement": "Half-life predicted by animal data", "setting": "[4]; animal data", "result": "~ 4.5 hours"}
    ]}
  ]
}
